Source: ChEMBL document CHEMBL5247632, “Current approaches and strategies to identify Hedgehog signaling pathway inhibitors for cancer therapy” (Eur J Med Chem, 2022)
Numbered stars: 1 amine (or outer) side, 2 acyl side, 3 side chain; on linkers, the order of the positions; unused ones are H or OH. Bridge positions count the residues as written; N and C are the ends. Peptide text beside a SMILES is read from it. CH2CH2 = C(C[*:2])[*:1]

How the values were obtained:
[1] = Inhibition of hedgehog signalling pathway in mouse Shh Light II cells expressing Gli-luciferase reporter gene assessed as inhibition of SHHN-induced luciferase activity; type: cell-based
Sonic hedgehog protein = Sonic hedgehog protein (Homo sapiens, UniProt Q15465); test: Binding affinity to Shh (unknown origin) assessed as dissociation constant
[2] = Inhibition of hedgehog signalling in Shh-stimulated mouse NIH3T3 cells coexpressing firefly luciferase gene under control of Gli-promoter and renilla gene under control of constitutive promoter assessed as inhibition of Shh-N induced luciferase expression by dual luciferase reporter assay; type: cell-based
[3] = Inhibition of hedgehog signalling pathway in mouse NIH3T3 cells by Gli-Bla reporter assay; type: cell-based
Protein smoothened = Protein smoothened (Homo sapiens, UniProt Q99835, D473H); test: Antagonist activity at SMO D473H mutant (unknown origin) expressed in mouse TM3 cells coexpressing Gli-luc reporter gene assessed as inhibition of Hh-Ag1.5 induced Gli luciferase activity incubated for 48 hrs by luminescence assay; type: cell-based
Chain of Protein smoothened (Q99835 28-787 D473H limits assumed): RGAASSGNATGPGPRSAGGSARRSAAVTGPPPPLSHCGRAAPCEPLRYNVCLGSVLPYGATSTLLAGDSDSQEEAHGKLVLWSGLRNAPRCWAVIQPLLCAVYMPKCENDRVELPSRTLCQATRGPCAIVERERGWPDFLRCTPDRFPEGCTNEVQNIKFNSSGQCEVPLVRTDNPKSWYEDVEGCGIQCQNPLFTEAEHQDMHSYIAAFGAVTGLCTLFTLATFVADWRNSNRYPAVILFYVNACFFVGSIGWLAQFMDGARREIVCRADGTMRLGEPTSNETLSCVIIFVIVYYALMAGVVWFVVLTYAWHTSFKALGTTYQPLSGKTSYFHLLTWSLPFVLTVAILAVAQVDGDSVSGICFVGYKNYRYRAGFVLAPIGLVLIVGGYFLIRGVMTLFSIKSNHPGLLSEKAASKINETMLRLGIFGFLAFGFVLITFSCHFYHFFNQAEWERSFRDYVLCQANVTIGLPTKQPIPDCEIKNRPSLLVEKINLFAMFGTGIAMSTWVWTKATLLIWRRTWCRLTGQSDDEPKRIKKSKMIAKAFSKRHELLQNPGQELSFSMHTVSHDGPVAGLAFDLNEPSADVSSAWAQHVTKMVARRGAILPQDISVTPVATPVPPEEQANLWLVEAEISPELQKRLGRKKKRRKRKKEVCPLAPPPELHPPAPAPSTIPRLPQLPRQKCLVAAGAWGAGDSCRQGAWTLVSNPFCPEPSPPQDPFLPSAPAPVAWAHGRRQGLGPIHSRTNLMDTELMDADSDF

Chain of Sonic hedgehog protein (Q15465 24-197 limits assumed): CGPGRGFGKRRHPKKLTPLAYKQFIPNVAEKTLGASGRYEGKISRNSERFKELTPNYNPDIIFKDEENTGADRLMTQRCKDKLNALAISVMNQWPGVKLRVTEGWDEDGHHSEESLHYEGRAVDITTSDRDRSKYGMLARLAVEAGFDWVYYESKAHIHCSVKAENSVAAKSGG

Compound `CCC(C)n1ncn(-c2ccc(N3CCN(c4ccc(OCC5COC(Cn6cncn6)(c6ccc(Cl)cc6Cl)O5)cc4)CC3)cc2)c1=O` (stereo not given) [ITRACONAZOLE] has an IC50 [1] of 500 nM.

Work on `CSCC[C@@H]1NC(=O)[C@H](C)NC(=O)[C@H](CCC(=O)O)NC(=O)[C@@H](NC(=O)[C@H](Cc2c[nH]c3ccccc23)NC(=O)[C@H](CO)NC(=O)[C@H](CC(C)C)NC(=O)[C@@H](NC(C)=O)[C@@H](C)O)Cc2ccc(cc2)OCCSC[C@@H](C(=O)N[C@H](C(=O)N[C@@H](CC(=O)O)C(=O)O)[C@@H](C)O)NC(=O)[C@H](CCSC)NC(=O)[C@H](CC(=O)O)NC1=O` (Ac-TLSWYEAMDMCTD-OH; linker 5-11 via CH2CH2) yielded a Kd (Sonic hedgehog protein) of 170 nM and an IC50 [2] of 250 nM.

Work on `CS(=O)(=O)c1ccc(C(=O)Nc2ccc(Cl)c(-c3ccccn3)c2)c(Cl)c1` [VISMODEGIB] yielded an IC50 [3] of 7 nM.

Compound `CC1C(=O)N(c2ccc(Cl)cc2)C(=O)N1Cc1ccccc1` (stereo not given) has an IC50 (Protein smoothened) of 50 nM.
